From US20230357239A1, “PYRIDO[2,3-D]PYRIMIDIN-4-AMINES AS SOS1 INHIBITORS” (Bayer Aktiengesellschaft, priority 2020, published 2023)

Target: human SOS1 (SOS1) with human K-RasG12C (Homo sapiens (Human), UniProt Q07889)
Experiment: hK-RasG12C interaction assay with hSOS1 (HTRF)
Assay type: binding
Settings: GST-hK-RasG12C and His-hSOS1, 60 min incubation at 20° C, mean, read-out: K-RasG12C - SOS interaction assay IC50 - [mol/l] (mean)

Chain of human SOS1 (SOS1) with human K-RasG12C (Q07889 564-1049): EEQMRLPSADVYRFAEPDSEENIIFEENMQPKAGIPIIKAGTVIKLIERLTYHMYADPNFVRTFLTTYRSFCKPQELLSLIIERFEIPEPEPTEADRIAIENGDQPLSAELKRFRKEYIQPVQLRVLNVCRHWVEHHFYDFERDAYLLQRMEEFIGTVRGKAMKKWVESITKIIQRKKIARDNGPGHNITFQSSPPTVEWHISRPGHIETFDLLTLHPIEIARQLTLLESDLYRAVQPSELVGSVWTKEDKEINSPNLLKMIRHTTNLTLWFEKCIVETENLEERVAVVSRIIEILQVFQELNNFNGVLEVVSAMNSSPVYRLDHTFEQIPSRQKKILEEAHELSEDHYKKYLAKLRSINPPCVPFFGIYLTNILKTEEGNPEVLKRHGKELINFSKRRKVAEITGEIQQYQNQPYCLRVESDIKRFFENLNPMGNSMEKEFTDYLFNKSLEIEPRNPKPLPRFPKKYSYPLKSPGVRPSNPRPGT

Q: Which IC50 does the source give for COc1nc2nc(C)nc(N[C@H](C)c3cccc(C(F)(F)F)c3C)c2cc1C1=CCN(C(C)=O)CC1 [Example 21, 1-{4-[7-methoxy-2-methyl-4-({(1R)-1-[2-methyl-3-(trifluoromethyl)phenyl]ethyl}amino)pyrido[2,3-d]pyrimidin-6-yl]-3,6-dihydropyridin-1(2H)-yl}ethan-1-one] here?
A: The IC50 was 949 nM.
